Measured values from US12036212B2, “Enhancement of tumor response to chemotherapy by activation of the asmase/ceramide pathway through timed administration of a short-acting anti-angiogenic agent” (Memorial Sloan-Kettering Cancer Center, priority 2014, dated 2024).
Blank lines part the entries; values can stand above or below the compound they belong to.

Columns and labels:
[1] = in vivo; cited from earlier work
BAEC = assay: Apoptosis in vitro (Hoechst nuclear staining) in BAEC; format: cell-based, bovine; details: 8 hours; for Effect on etoposide-induced apoptosis: BAEC pre-incubated 30 min with bFGF 2 ng/mL, VEGF 2 ng/mL or nystatin 30 μg/mL, etoposide 50 μM
Experimental: Apoptosis was assessed in vitro by examining morphologic changes in nuclear chromatin using bis-benzimide trihydrochloride (Hoechst #33258; Sigma-Aldrich, Milwaukee WI). BAEC and HCAEC monolayer cultures were first detached using 0.25% trypsin and 0.02% EDTA in HBSS and then combined with the floating population of cells. The cell pellet was washed in PBS, resuspended in 3% paraformaldehyde, and incubated for 10 min at 22° C. Following the removal of fixative, cells were resuspended in PBS containing 8 μg/ml of Hoechst-33258. Following a 15-min incubation at 22° C., cells were placed on a glass slide, and scored for the incidence of apoptotic chromatin changes using fluorescence microscope.
Since the ASMase/ceramide pathway is known to play a critical role in endothelial injury and dysfunction, BAEC and HCAEC were treated with paclitaxel (100 nM), etoposide (50 μM), and cisplatin (0.1-50 μM), and endothelial apoptosis was assessed.
To set the basis for experiments involving evaluation of anti-angiogenic therapy in combination with chemotherapy, and the role of ASMase/ceramide pathway in this process, the effects of various factors on the chemotherapy induced cell death were assessed. BAEC were pre-incubated for 30 min with bFGF (2 ng/mL), VEGF (2 ng/mL) or nystatin (30 μg/mL) prior to treatment with etoposide (50 μM), and apoptosis was evaluated after 8 hours using bis-benzamide trihydrochloride staining (FIG. 3).

CRM = CRM detection by confocal microscopy in BAEC; format: cell-based, bovine; details: nystatin 30 μg/mL 30 min pre-treatment, paclitaxel 100 nM
Experimental: BAEC were grown on CC2-treated chamber slides (Nalge Nunc International Corp., Naperville, USA) and then exposed to etoposide or paclitaxel with or without pre-incubation with Nystatin (30 μg/ml, Sigma) for 30 min. BAEC were then washed in cold PBS, fixed for 15 min in fresh 2% paraformaldehyde, washed 2× with cold PBS, and blocked with 5% FBS in PBS for 20 min at room temperature. Cells were stained with anti-ceramide MID 15B4 IgM (Alexis Corporation) at 1:50 dilution for 1 hour at room temperature, washed 3× in PBS, and thereafter with Texas Red-conjugated secondary antibody (Jackson Immunoresearch Laboratories, Inc.) at 1:500 dilution for 1 hour at room temperature. Nonspecific fluorescence was excluded using isotype control IgM (BD Biosciences). Cells were washed 3×, stained with DAPI and mounted in 0.1% paraphenylenediamine. Fluorescence was detected using Leica TCS SP2 AOBS 1- and 2-photon laser scanning confocal (DMRXA2 upright stand) microscope coupled with MetaMorph 7.5 (Molecular Devices). Number of CRMs in membranes of endothelial cells was analyzed using MetaMorph 7.5 software that allowed outlining of regions containing CRMs based on two criteria: 1) CRM size (≥500 nm); 2) Intensity of ceramide staining. Mice: asmase^+/+ and asmase^−/− mice, maintained in a SCID background, were propagated using heterozygous breeding pairs and genotyped as previously described (Santana et al. Cell, 86, 189-199, 1996; Grassme et al. Nat Med 9, 322-330 (2003). 6-12 week-old C57BL6/SV129 male mice, purchased from The Jackson Laboratory (Bar Harbor).
(§1) To test the effect of chemotherapy on ASMase signaling and ceramide production, BAEC were treated with paclitaxel (100 nM) and ASMase activity was determined by radioenzymatic assay (Rotolo et al, infra) using [^14C-methylcholine] sphingomyelin (Amersham) as substrate (FIG. 1A). Induction of ASMase activity was observed within 5 minutes after treatment, and the activation continued for 30 minutes. Ceramide generation was monitored using the diacylglycerol kinase assay (Stancevic et al. PLoS ONE 8, e69025, 2013). […]

ceramide [2] = assay: Ceramide generation (diacylglycerol kinase assay) in BAEC; format: cell-based, bovine; details: etoposide 50 μM
Experimental: (§2) BAEC were established from the intima of bovine aorta as described^1. Stock cultures were grown in 100-mm dishes in Dulbecco's modified Eagle's medium (DMEM) supplemented with glucose (1 g/liter), 5% heat-inactivated calf serum (CS), penicillin (50 units/ml), and streptomycin (50 μg/ml). Purified human recombinant bFGF (1 ng/ml; R&D Systems, Inc., Minneapolis, MN) was added every other day during the exponential growth phase. […] These plateau phase cells were either used for experiments, or further sub-cultured (up to a maximum of 10 times) at a split ratio of 1:8. For sub-culturing, monolayers were dissociated with STV (0.05% trypsin and 0.02% EDTA in PBS) for 2-3 min at 22° C., washed twice in 5% CS-DMEM, and resuspended in DMEM with supplements as above. These mild conditions of trypsinization were sufficient to detach cells but not injure, stimulate, or affect cell function in a detectable way. BAEC were maintained at 37° C. in 10% CO2 humidified incubators.
After treatment, cells were placed on ice, washed with cold PBS, and lipids were extracted by addition of scraped cells in methanol to an equal volume of chloroform and 0.6 volume of buffered saline/EDTA solution (135 mM NaCl, 4.5 mM KCl, 1.5 mM CaCl2), 0.5 mM MgCl2, 5.6 mM glucose, 10 mM HEPES pH 7.2, 10 mM EDTA). Lipids in the organic phase extract were dried under N2 and subjected to mild alkaline hydrolysis (0.1 N methanolic KOH for 1 hour at 37° C.) to remove glycerophospholipids. Samples were re-extracted, and the organic phase was dried under N2. Ceramide contained in each sample was resuspended in a 100 μl reaction mixture containing 150 μg of cardiolipin, 280 μM diethylenetriaminepentaacetic acid, 51 mM octyl-β-glucopyranoside (Calbiochem), 50 mM NaCl, 51 mM imidazole, 1 mM EDTA, 12.5 mM MgCl2, 2 mM dithiothreitol, 0.7% glycerol, 70 μM β-mercaptoethanol, 1 mM ATP, 10 μCi of [γ-^32P]ATP, 35 μg/ml Escherichia coli diacylglycerol kinase (Calbiochem) at pH 6.5. After 30 minutes at room temperature, the reaction was stopped by extraction of lipids with 1 ml of chloroform:methanol:1 N HCl (100:100:1), 170 μl of buffered saline solution (BSS) (135 mM NaCl, 1.5 mM CaCl2, 0.5 mM MgCl2, 5.6 mM glucose, and 10 mM HEPES (pH 72), and 30 μl of 100 mM EDTA. The lower organic phase was dried under N2. Ceramide-1 phosphate was resolved by thin-layer chromatography on silica gel 60 plates (Whatman) using a solvent system of chloroform:methanol:acetic acid (65:15:5, v/v/v) and detected by autoradiography, and incorporated ^32P was quantified by liquid scintillation counting. The level of ceramide was determined by comparison with a standard curve generated concomitantly of known amounts of ceramide.
as §1, with “Induction of ASMase activity was observed within 5 minutes after treatment, and the activation continued for 30 minutes.” left out
(§3) To determine the generality of the results observed, experiments were carried out using an additional endothelial cell line, human coronary artery endothelial cells (HCAEC); experiments were also performed using a different chemotherapeutic agent. […] Next, HCAEC were treated with paclitaxel (100 nM) (data not shown) and etoposide (50 μM) (FIG. 1F), and ceramide generation was evaluated. […]

ceramide [3] = assay: Ceramide generation in HCAEC; format: cell-based, human; details: paclitaxel 100 nM, etoposide 50 μM, cisplatin 0.1-50 μM
Experimental: HCAEC were obtained from Clonetics™ Coronary Artery Endothelial Cell Systems (Cambrex Bio Science Inc.). For HCAEC culturing and sub-culturing Clonetics cell system components were used: EBM®-2, Endothelial Cell Basal Medium-2 with addition of Clonetics EGM-2-MV SingleQuots containing growth supplements (Cambrex) (Biomedical Technologies, Inc.). For sub-culturing, monolayers were dissociated with Clonetics® Trypsin/EDTA solution for 2-3 min at 22° C. at a split ratio of 1:4 to expand the cell population for experiments. HCAEC cultures were maintained at 37° C. in 5% CO2 humidified incubators.
After treatment, cells were placed on ice, washed with cold PBS, and lipids were extracted by addition of scraped cells in methanol to an equal volume of chloroform and 0.6 volume of buffered saline/EDTA solution (135 mM NaCl, 4.5 mM KCl, 1.5 mM CaCl2), 0.5 mM MgCl2, 5.6 mM glucose, 10 mM HEPES pH 7.2, 10 mM EDTA). […] After 30 minutes at room temperature, the reaction was stopped by extraction of lipids with 1 ml of chloroform:methanol:1 N HCl (100:100:1), 170 μl of buffered saline solution (BSS) (135 mM NaCl, 1.5 mM CaCl2, 0.5 mM MgCl2, 5.6 mM glucose, and 10 mM HEPES (pH 72), and 30 μl of 100 mM EDTA. The lower organic phase was dried under N2. Ceramide-1 phosphate was resolved by thin-layer chromatography on silica gel 60 plates (Whatman) using a solvent system of chloroform:methanol:acetic acid (65:15:5, v/v/v) and detected by autoradiography, and incorporated ^32P was quantified by liquid scintillation counting. The level of ceramide was determined by comparison with a standard curve generated concomitantly of known amounts of ceramide.
as §3

ASMase = ASMase activity radioenzymatic assay in BAEC; format: cell-based, bovine; details: etoposide 50 μM
Experimental: as §2
ASMase activity was quantified by radioenzymatic assay using [^14C-methylcholine]sphingomyelin (Amersham) as substrate as described (Schissel et al. J Biol Chem, 271, 18431-18436, 1996). Cell lysates were incubated with [^14C-methylcholine]-sphingomyelin substrate (0.026 mCi/9.5 nmol) in 250 mM sodium acetate, pH 5.0 supplemented with 0.1% Triton X-100 and 1 mM EDTA or 0.1 mM ZnCl. Reactions were terminated after 1 h with CHCl3:MeOH:1N HCl (100:100:1, v/v/v), and [^14C-methylcholine]phosphocholine product in the aqueous layer of the Folch extract was quantified using a Beckman Packard 2200 CA Tricarb scintillation counter. For detection of ASMase activity in patients, 10 μl of serum was used.
To test the effect of chemotherapy on ASMase signaling and ceramide production, BAEC were treated with paclitaxel (100 nM) and ASMase activity was determined by radioenzymatic assay (Rotolo et al, infra) using [^14C-methylcholine] sphingomyelin (Amersham) as substrate (FIG. 1A). Induction of ASMase activity was observed within 5 minutes after treatment, and the activation continued for 30 minutes. Ceramide generation was monitored using the diacylglycerol kinase assay (Stancevic et al. PLoS ONE 8, e69025, 2013). […] In further support of this, pre-incubation of BAEC with nystatin prior to treatment with chemotherapy inhibits chemotherapy-induced apoptosis (FIG. 3).
To determine the generality of the results observed, experiments were carried out using an additional endothelial cell line, human coronary artery endothelial cells (HCAEC); experiments were also performed using a different chemotherapeutic agent. […] Next, HCAEC were treated with paclitaxel (100 nM) (data not shown) and etoposide (50 μM) (FIG. 1F), and ceramide generation was evaluated.
To further establish the generality of ASMase activation by various chemotherapeutic agents, BAEC and HCAEC were treated with increasing doses of cisplatin (0.1-50 μM) (data not shown). […] The ASMase/ceramide pathway was activated by chemotherapeutic agents that belong to different classes of chemotherapeutic agents, such as: taxanes, topoisomerase inhibitors, and nucleoside analog metabolic inhibitors. Since such chemotherapy agents are characterized by distinct mechanisms of action in tumor cells, it is surprising that a group of such distinct agents converges on a common molecular (ASMase/ceramide) axis in endothelium. The present confirmation that distinct chemotherapeutic agents activate the ASMase/ceramide pathway permits the present inventors to take into account the results of experiments using single dose radiotherapy, which has been reported to activate the same pathway (Rao, S. S. et al., Axitinib sensitization of high Single Dose Radiotherapy. Radiotherapy and Oncology: Journal of the European Society for Therapeutic Radiology and Oncology 111, 88-93, doi:10.1016/j.radonc.2014.02.010 (2014)).
Gemcitabine was able to activate ASMase in cultured endothelial cells. […]

Compound: Cc1ccc(C(=O)Nc2ccc(CN3CCN(C)CC3)c(C(F)(F)F)c2)cc1C#Cc1cnc2cccnn12 [ponatinib]
Average half-life [1]: 24 h

Compound: Cc1[nH]c(/C=C2\C(=O)Nc3ccccc32)c(C)c1CCC(=O)O [SU6668]
Average half-life [1]: 3.6 h

Compound: CNC(=O)c1ccccc1Sc1ccc2c(/C=C/c3ccccn3)n[nH]c2c1 [axitinib]
Average half-life [1]: 2.5 to 6 h

Compound: anginex
Half-life [1]: ~0.833 h

Compound: C[C@@H]1[C@H](O)[C@@H](C)/C=C/C=C/CC/C=C/C=C/C=C/C=C/C(O[C@H]2O[C@H](C)[C@@H](O)[C@H](N)[C@@H]2O)CC2O[C@](O)(CC(O)C(O)CCC(O)CC(O)CC(O)CC(=O)O[C@H]1C)CC(O)C2C(=O)O (some centres unmarked) [nystatin]
Effect on etoposide-induced apoptosis (BAEC): substantially inhibits etoposide-induced apoptosis
Effect on paclitaxel-induced CRM formation (CRM): prevented the formation of CRMs

Compound: Clc1ccc(Nc2nnc(Cc3ccncc3)c3ccccc23)cc1 [vatalanib]
Average half-life [1]: 4.7 h

Compound: COc1cc2nccc(Oc3ccc(NC(=O)C4(C(=O)Nc5ccc(F)cc5)CC4)cc3)c2cc1OC [cabozantinib]
Average half-life [1]: 55 h

Compound: bFGF: basic fibroblast growth factor, pro-angiogenic factor
Effect on etoposide-induced apoptosis (BAEC): substantially inhibits etoposide-induced apoptosis

Compound: VEGF
Effect on etoposide-induced apoptosis (BAEC): substantially inhibits etoposide-induced apoptosis

Compound: CNC(=O)c1cc(Oc2ccc(NC(=O)Nc3ccc(Cl)c(C(F)(F)F)c3)cc2)ccn1 [sorafenib]
Average half-life [1]: 25 to 48 h

Compound: COc1cc2c(Oc3ccc4[nH]c(C)cc4c3F)ncnc2cc1OCCCN1CCCC1 [cediranib]
Average half-life [1]: 22 to 27 h

Ceramide generation (ceramide [2]; paclitaxel 100 nM, cisplatin 0.1-50 μM): ceramide formation within a few minutes
ASMase activation (ASMase; cisplatin 0.1-50 μM, gemcitabine 100 nM time-course): activation of ASMase
Compound: COc1cc([C@@H]2c3cc4c(cc3[C@@H](O[C@@H]3O[C@@H]5CO[C@@H](C)O[C@H]5[C@H](O)[C@H]3O)[C@H]3COC(=O)[C@H]23)OCO4)cc(OC)c1O [etoposide]
Ceramide formation remained for (ceramide [2]): 30 min
Apoptotic response (BAEC; bovine endothelial cells, cisplatin up to 50 μM, etoposide 50 μM alone): significantly induces apoptosis
Ceramide generation (ceramide [3]): leads to the generation of ceramide
ASMase activation remained for (ASMase): 30 min

Compound: Cc1ccc(Nc2nccc(N(C)c3ccc4c(C)n(C)nc4c3)n2)cc1S(N)(=O)=O [pazopanib]
Average half-life [1]: about 30 hours

Compound: CCN(CC)CCNC(=O)c1c(C)[nH]c(/C=C2\C(=O)Nc3ccc(F)cc32)c1C [sunitinib]
Average half-life [1]: 40 to 60 h
